Values of other authors, collected in publication PMC6138493 (British Journal of Clinical Pharmacology, 2018).

Conditions: after intravenous administration; ref Onasch et al. 24

Q: Which “Elimination half‐life of DA in plasma” value does the source give for `NCCc1ccc(O)c(O)c1` [DA, dopamine] here?
A: The value was “a few minutes”.
